Results taken from the supplement of paper PMC12592484.

Experiments:
Assay in all cases: drug sensitivity score (DSS2, normalised partial AUC of dose-response, 72 h CellTiter-Glo viability) (DSS (dimensionless)); higher = more sensitive (stronger growth inhibition / cytotoxicity); extreme values may be limits of the assay
PF179T = test system: PF179T
In short: (§1)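 The drug sensitivity score reported here is a partial area under the fitted logistic dose–response curve, divided by the log of the curve's upper asymptote and computed in BREEZE; higher values denote greater sensitivity. Low-passage primary prostate cancer-associated fibroblasts, PF179T, WPMY-1, LNCaP and 22Rv1 cells were seeded into 384-well plates preloaded with compounds at five doses across a 10,000-fold range. CellTiter-Glo 2.0 luminescence gave viability at 72 h, scaled to vehicle and positive-control wells.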

CAF#3 = test system: CAF#3 (primary prostate cancer-associated fibroblasts of myCAF-like type)
In short: as §1

CAF#2 = test system: CAF#2 (primary prostate cancer-associated fibroblasts of iCAF-like type)
In short: as §1

CAF#4 = test system: CAF#4 (primary prostate cancer-associated fibroblasts of iCAF-like type)
In short: as §1

CAF#7 = test system: CAF#7 (primary prostate cancer-associated fibroblasts of myCAF-like type)
In short: as §1

22Rv1 = test system: 22Rv1
In short: as §1

CAF#5 = test system: CAF#5 (primary prostate cancer-associated fibroblasts of myCAF-like type)
In short: as §1

CAF#6 = test system: CAF#6 (primary prostate cancer-associated fibroblasts of iCAF-like type)
In short: as §1

WPMY-1 = test system: WPMY-1
In short: as §1

CAF#1 = test system: CAF#1 (primary prostate cancer-associated fibroblasts of myCAF-like type)
In short: as §1

LNCAP = test system: LNCAP
In short: as §1

SMILES	drug sensitivity score (PF179T)	drug sensitivity score (CAF#3)	drug sensitivity score (CAF#2)	drug sensitivity score (CAF#4)	drug sensitivity score (CAF#7)	drug sensitivity score (22Rv1)	drug sensitivity score (CAF#5)	drug sensitivity score (CAF#6)	drug sensitivity score (WPMY-1)	drug sensitivity score (CAF#1)	drug sensitivity score (LNCAP)
Cc1ccc(-c2cc(C(F)(F)F)nn2-c2ccc(S(N)(=O)=O)cc2)cc1 [Celecoxib] (tested concentration range 1-10000 nM)	0	0	0	0	0	0	0	0	0	0	1.2
C[C@@H]1COCCN1c1cc(C2([S@](C)(=N)=O)CC2)nc(-c2cc[nH]c3nccc2-3)n1 [Ceralasertib] (tested concentration range 2.5-25000 nM)	8.1	6.7	9.3	8	6.3	10	7.8	6.2	13.9	6.6	10.7
CCS(=O)(=O)N1CCN(c2ccc(Nc3ncc(C(N)=O)c(NC4CC4)n3)cc2)CC1 [Cerdulatinib] (tested concentration range 1-10000 nM)	2.7	0	3.7	0	0.1	0	3.8	0.4	8.8	6.1	4.4
Cc1cc(Nc2ncc(Cl)c(Nc3ccccc3S(=O)(=O)C(C)C)n2)c(OC(C)C)cc1C1CCNCC1 [Ceritinib] (tested concentration range 0.2-2500 nM)	0.9	3	5.1	2.4	2.3	3.1	2.6	1.2	1	4.6	4.2
CCN(CC)CCCC(C)Nc1ccnc2cc(Cl)ccc12 (stereo not given) [Chloroquine] (tested concentration range 10-100000 nM)	9.5	8.4	9.8	8.6	8.6	11.2	7.4	8.2	10.4	5.7	9.8
N.N.[Cl][Pt][Cl] [Cisplatin] (tested concentration range 10-100000 nM)	11.4	5.7	18.1	5	4.8	15	14.6	4.3	16	11.8	5.6
Nc1nc(Cl)nc2c1ncn2[C@H]1C[C@H](O)[C@@H](CO)O1 [Cladribine] (tested concentration range 0.1-1000 nM)	3.9	0.5	2.7	0	0.6	1.7	0.1	0	5.1	0	5.2
Nc1nc(Cl)nc2c1ncn2[C@@H]1O[C@H](CO)[C@@H](O)[C@@H]1F [Clofarabine] (tested concentration range 1-10000 nM)	10.6	5	10.6	4.6	9.3	13.9	7.3	6.1	16.9	6.5	18.5
CCN(CC)CCOc1ccc(C(=C(Cl)c2ccccc2)c2ccccc2)cc1 [Clomifene] (tested concentration range 1-10000 nM)	6	4.2	5.8	4	3.7	5.7	3.7	4	5.5	2.3	4.8
O=C(c1ccc(F)c(F)c1Nc1ccc(I)cc1F)N1CC(O)([C@@H]2CCCCN2)C1 [Cobimetinib] (tested concentration range 0.1-1000 nM)	2.1	0	3.9	1.6	5.3	9.6	1.9	3.3	4.2	0.5	0
COc1c(OCCCN2CCOCC2)ccc2c1N=C(NC(=O)c1cnc(N)nc1)N1CCN=C21 [Copanlisib] (tested concentration range 0.1-1000 nM)	8.8	6	9.8	8.7	7.5	14.1	9.9	7	7.7	7.7	4.7
CC1(COc2ccc3c(c2)ncn3-c2ccc3cccc(N4CCC(N)CC4)c3n2)COC1 [Crenolanib] (tested concentration range 1-10000 nM)	4.7	7.5	7.3	3.2	3.5	4.9	9.3	7	7.2	8.9	4.4
C[C@@H](Oc1cc(-c2cnn(C3CCNCC3)c2)cnc1N)c1c(Cl)ccc(F)c1Cl [Crizotinib] (tested concentration range 0.1-1000 nM)	1.4	2.7	1.4	0	0.8	0	1.5	2.5	0.5	0	0
Nc1ccn([C@@H]2O[C@H](CO)[C@@H](O)[C@@H]2O)c(=O)n1 [Cytarabine] (tested concentration range 1-10000 nM)	12.9	0	10	5.4	2.6	14.3	1.9	0.5	7.7	1.8	11.9
CC(C)(C)c1nc(-c2cccc(NS(=O)(=O)c3c(F)cccc3F)c2F)c(-c2ccnc(N)n2)s1 [Dabrafenib] (tested concentration range 0.2-2500 nM)	2.1	4.5	0.2	0	4.1	5.6	3.5	2.6	0	1.4	4.8
COc1cc2ncnc(Nc3ccc(F)c(Cl)c3)c2cc1NC(=O)/C=C/CN1CCCCC1 [Dacomitinib] (tested concentration range 0.1-1000 nM)	0.2	0.6	1	1.4	0	1	0	0	1	0.7	1.4
Cc1c2oc3c(C)ccc(C(=O)N[C@@H]4C(=O)N[C@H](C(C)C)C(=O)N5CCC[C@H]5C(=O)N(C)CC(=O)N(C)[C@@H](C(C)C)C(=O)O[C@@H]4C)c3nc-2c(C(=O)N[C@@H]2C(=O)N[C@H](C(C)C)C(=O)N3CCC[C@H]3C(=O)N(C)CC(=O)N(C)[C@@H](C(C)C)C(=O)O[C@@H]2C)c(N)c1=O [Dactinomycin] (tested concentration range 0.1-1000 nM)	17.2	23	23.2	17.2	22.6	31.8	21.1	19.8	26.5	24.7	39.3
O=C(/C=C/c1cccnc1)NCCCCC1CCN(C(=O)c2ccccc2)CC1 [Daporinad] (tested concentration range 0.1-1000 nM)	21.3	12.8	25.8	23.6	17.5	25.6	13.9	16.5	29.4	13.9	26.9
CCN(CC)CCN(Cc1ccc(-c2ccc(C(F)(F)F)cc2)cc1)C(=O)Cn1c(SCc2ccc(F)cc2)nc(=O)c2c1CCC2 [Darapladib] (tested concentration range 0.1-1000 nM)	0	0.1	0	1	0	3.7	0.7	0	1.3	0	0
CC(O)c1cc(C(=O)N[C@@H](C)Cn2ccc(-c3ccc(C#N)c(Cl)c3)n2)n[nH]1 (stereo not given in full) [Darolutamide] (tested concentration range 0.2-2500 nM)	0	0.1	2.2	4.4	0	0.6	2.9	0	0	3.1	0.1
Cc1nc(Nc2ncc(C(=O)Nc3c(C)cccc3Cl)s2)cc(N2CCN(CCO)CC2)n1 [Dasatinib] (tested concentration range 0.1-1000 nM)	11.7	13.7	15.5	10.3	15.3	0	15.2	13	5.3	13.8	5
COc1cccc2c1C(=O)c1c(O)c3c(c(O)c1C2=O)C[C@@](O)(C(C)=O)C[C@@H]3O[C@H]1C[C@H](N)[C@H](O)[C@H](C)O1 [Daunorubicin] (tested concentration range 0.1-1000 nM)	8.6	6.4	9.4	4.2	8.4	12.9	6.6	7.9	10.7	7.3	17.5
CC[C@@](C)(Nc1ccnc(-c2c[nH]c3ncccc23)n1)C(=O)NCC(F)(F)F [Decernotinib] (tested concentration range 1-10000 nM)	0	0.5	0.1	0	0	0	0	0	0.7	0.2	0
Nc1ncn([C@H]2C[C@H](O)[C@@H](CO)O2)c(=O)n1 [Decitabine] (tested concentration range 1-10000 nM)	1.8	0.1	0.8	0	0	1.1	1.6	0.6	0.8	0	0
CC(=O)N(O)CCCCCNC(=O)CCC(=O)N(O)CCCCCNC(=O)CCC(=O)N(O)CCCCCN [Deferoxamine] (tested concentration range 1-10000 nM)	5.7	0.2	4.8	3.2	1.6	4.9	2.4	1.4	5.3	0.9	3.2
